Measurements reported in US20180360855A1, “THE FORMULATION COMPRISING PHOSPHOMYCINE AND ASCORBIC ACID FOR THE TREATMENT OF BACTERIAL URINARY SYSTEM INFECTIONS” (priority 2015, published 2018).

Assays:
[1] = pH of solutions of Phosphomycine Trometamol with and without ascorbic acid in water; assay type: physicochemical
[2] = system: susceptible bacteria; conditions: cited from earlier work

C[C@@H]1O[C@@H]1P(=O)(O)O [Phosphomycine Trometamol, Phosphomycine trometamol]
pH in 50 ml water ([1]; 5.631 g Phosphomycine Trometamol (+ 1.0 g ascorbic acid) in 50 ml water): 3.608 | pH in 100 ml water ([1]; 5.631 g Phosphomycine Trometamol (+ 1.0 g ascorbic acid) in 100 ml water): 3.743 | pH in 150 ml water ([1]; 5.631 g Phosphomycine Trometamol (+ 1.0 g ascorbic acid) in 150 ml water): 3.824

C[C@@H]1O[C@@H]1P(=O)(O)O [Phosphomycine]
efficiency in vitro depending on environmental conditions ([2]; in the presence of Alkali pH, glycose, phosphate, and sodium chloride): reduced | time in which efficiency on susceptible bacteria is shown ([2]; in vitro studies): 30 min
